Results taken from paper PMC6273912, “Novel 5-Substituted 2-(Aylmethylthio)-4-chloro-N-(5-aryl-1,2,4-triazin-3-yl)benzenesulfonamides: Synthesis, Molecular Structure, Anticancer Activity, Apoptosis-Inducing Activity and Metabolic Stability” (Molecules, 2016).

Legend:
Type in all cases: cell-based, human
HeLa (cervical cancer) = assay: MTT cell viability assay, HeLa; conditions: Homo sapiens, 72 h; for IC50: 72 h of incubation, mean ± SD
Protocol: (§1) All chemicals, if not stated otherwise, were obtained from Sigma-Aldrich (St. Louis, MO, USA). The MCF-7 cell line was purchased from Cell Lines Services (Eppelheim, Germany), the HeLa and HCT-116 cell lines were obtained from the Department of Microbiology, Tumor and Cell Biology, Karolinska Institute (Stockholm, Sweden). Cells were cultured in Dulbecco’s modified Eagle’s medium (DMEM) supplemented with 10% fetal bovine serum, 2 mM glutamine, 100 units/mL penicillin, and 100 μg/mL streptomycin. Cultures were maintained in a humidified atmosphere with 5% CO2 at 37 °C in an incubator (HeraCell, Heraeus, Langenselbold, Germany).
(§2) Cell viability was determined using the MTT (3-(4,5-dimethylthiazol-2-yl)-2,5-diphenyl-tetrazoliumbromide) assay. Stock solutions of the studied compounds were prepared in 100% DMSO. […] Cells were seeded in 96-well plates at a density of 5 × 10^3 cells/well and treated for 72 h with the examined compounds in the concentration range 1–100 μM (1, 10, 25, 50 and 100 μM). Following treatment, MTT (0.5 mg/mL) was added to the medium and cells were further incubated for 2 h at 37 °C. Cells were lysed with DMSO and the absorbance of the formazan solution was measured at 550 nm with a plate reader (1420 multilabel counter, Victor, Jügesheim, Germany). […] The experiment was performed in triplicate. Values are expressed as the mean ± SD of at least three independent experiments.

HCT-116 (colon cancer) = assay: MTT cell viability assay, HCT-116; conditions: Homo sapiens, HCT-116, 72 h, 72 h of incubation, mean ± SD
Protocol: as §1, §2

MCF-7 (breast cancer) = assay: MTT cell viability assay, MCF-7; conditions: mean ± SD
Protocol: as §1, §2

[1] = Homo sapiens, MCF7, 72 h of incubation

Compound	IC50 (HeLa (cervical cancer))	IC50 (HCT-116 (colon cancer))	IC50 (MCF-7 (breast cancer); [1])	viability at 100 µM (HeLa (cervical cancer); HeLa, 100 μM, read-out: Viability of cell line at 100 μM (HeLa))	IC50 (MCF-7 (breast cancer); 72 h of incubation)
COc1cc(-c2cnnc(NS(=O)(=O)c3cc(C(=O)Nc4ccc(Cl)cc4)c(Cl)cc3SCc3ccccc3)n2)cc(OC)c1OC [Compound 50, 4-Benzylthio-2-chloro-N-(4-chlorophenyl)-5-{N-[5-(3,4,5-trimethoxyphenyl)-1,2,4-triazin-3-yl]sulfamoyl}-benzamide]	130 ± 8 µM	115 ± 3 µM	120 ± 4 µM	–	–
COc1ccc(NC(=O)c2cc(S(=O)(=O)Nc3nncc(-c4ccc(OC)c(OC)c4)n3)c(SCc3ccccc3)cc2Cl)cc1 [Compound 59, 4-Benzylthio-2-chloro-5-{N-[5-(3,4-dimethoxyphenyl)-1,2,4-triazin-3-yl]sulfamoyl}-N-(4-methoxyphenyl)-benzamide]	150 ± 2 µM	140 ± 5 µM	100 ± 5 µM	–	–
COc1ccc(-c2cnnc(NS(=O)(=O)c3cc(C(=O)Nc4ccc(C)cc4)c(Cl)cc3SCc3ccccc3)n2)cc1OC [Compound 55, 4-Benzylthio-2-chloro-5-{N-[5-(3,4-dimethoxyphenyl)-1,2,4-triazin-3-yl]sulfamoyl}-N-(4-methylphenyl)-benzamide]	105 ± 4 µM	150 ± 3 µM	150 ± 6 µM	–	–
COc1ccc(-c2cnnc(NS(=O)(=O)c3cc(C)c(Cl)cc3SCc3ccccc3)n2)cc1 [Compound 29, 2-Benzylthio-4-chloro-N-[5-(4-methoxyphenyl)-1,2,4-triazin-3-yl]-5-methylbenzenesulfonamide]	190 ± 7 µM	720 ± 36 µM	110 ± 2 µM	–	–
Cc1ccc(NC(=O)c2cc(S(=O)(=O)Nc3nncc(-c4cccc(F)c4)n3)c(SCc3ccccc3)cc2Cl)cc1 [Compound 51, 4-Benzylthio-2-chloro-5-{N-[5-(3-fluorophenyl)-1,2,4-triazin-3-yl]sulfamoyl}-N-(4-methylphenyl)benzamide]	–	190 ± 13 µM	95 ± 5 µM	100%	–
N.N.[Cl][Pt][Cl] [Cisplatin, reference compound]	–	–	–	–	3 ± 0.1 µM
COc1ccc(-c2cnnc(NS(=O)(=O)c3cc(C(=O)Nc4ccccc4)c(Cl)cc3SCc3ccccc3)n2)cc1OC [Compound 44, 4-Benzylthio-2-chloro-5-{N-[5-(3,4-dimethoxyphenyl)-1,2,4-triazin-3-yl]sulfamoyl}-N-phenylbenzamide]	160 ± 8 µM	160 ± 6 µM	90 ± 5 µM	–	–
COc1ccc(-c2cnnc(NS(=O)(=O)c3cc(C(=O)Nc4ccc(Cl)cc4)c(Cl)cc3SCc3ccccc3)n2)cc1OC [Compound 49, 4-Benzylthio-2-chloro-N-(4-chlorophenyl)-5-{N-[5-(3,4-dimethoxyphenyl)-1,2,4-triazin-3-yl]sulfamoyl}-benzamide]	120 ± 6 µM	110 ± 2 µM	81 ± 5 µM	–	–
COc1ccc(NC(=O)c2cc(S(=O)(=O)Nc3nncc(-c4cc(OC)c(OC)c(OC)c4)n3)c(SCc3ccccc3)cc2Cl)cc1 [Compound 60, 4-Benzylthio-2-chloro-N-(4-methoxyphenyl)-5-{N-[5-(3,4,5-trimethoxyphenyl)-1,2,4-triazin-3-yl]sulfamoyl}-benzamide]	230 ± 5 µM	230 ± 18 µM	270 ± 13 µM	–	–

Continued, in another order:

IC50 (HeLa (cervical cancer))	IC50 (HCT-116 (colon cancer))	IC50 (MCF-7 (breast cancer); [1])	Compound	viability at 100 µM (HeLa (cervical cancer); HeLa, 100 μM, read-out: Viability of cell line at 100 μM (HeLa))	IC50 (MCF-7 (breast cancer); 72 h of incubation)
88 ± 6 µM	98 ± 2 µM	92 ± 6 µM	COc1ccc(NC(=O)c2cc(S(=O)(=O)Nc3nncc(-c4cccc(OC)c4)n3)c(SCc3ccccc3)cc2Cl)cc1 [Compound 58, 4-Benzylthio-2-chloro-N-(4-methoxyphenyl)-5-{N-[5-(3-methoxyphenyl)-1,2,4-triazin-3-yl]sulfamoyl}benzamide]	–	–
76 ± 3 µM	67 ± 1 µM	88 ± 1 µM	Cc1cc(S(=O)(=O)Nc2nncc(-c3cccc(F)c3)n2)c(SCc2ccc(C(F)(F)F)cc2)cc1Cl [Compound 33, 4-Chloro-N-[5-(3-fluorophenyl)-1,2,4-triazin-3-yl]-5-methyl-2-[4-(trifluoromethyl)benzylthio]benzenesulfonamide]	–	–
130 ± 10 µM	92 ± 3 µM	87 ± 2 µM	COc1cccc(-c2cnnc(NS(=O)(=O)c3cc(C(=O)Nc4ccccc4)c(Cl)cc3SCc3ccccc3)n2)c1 [Compound 43, 4-Benzylthio-2-chloro-5-{N-[5-(3-methoxyphenyl)-1,2,4-triazin-3-yl]sulfamoyl}-N-phenylbenzamide]	–	–
74 ± 2 µM	76 ± 2 µM	88 ± 2 µM	COc1ccc(-c2cnnc(NS(=O)(=O)c3cc(C(=O)Nc4ccc(C)cc4)c(Cl)cc3SCc3ccccc3)n2)cc1 [Compound 53, 4-Benzylthio-2-chloro-5-{N-[5-(4-methoxyphenyl)-1,2,4-triazin-3-yl]sulfamoyl}-N-(4-methylphenyl)-benzamide]	–	–
82 ± 1 µM	77 ± 2 µM	83 ± 2 µM	COc1ccc(-c2cnnc(NS(=O)(=O)c3cc(C(=O)Nc4ccccc4)c(Cl)cc3SCc3ccccc3)n2)cc1 [Compound 42, 4-Benzylthio-2-chloro-5-{N-[5-(4-methoxyphenyl)-1,2,4-triazin-3-yl]sulfamoyl}-N-phenylbenzamide]	–	–
80 ± 2 µM	75 ± 2 µM	89 ± 3 µM	COc1cc(-c2cnnc(NS(=O)(=O)c3cc(C(=O)Nc4ccc(C)cc4)c(Cl)cc3SCc3ccccc3)n2)cc(OC)c1OC [Compound 56, 4-Benzylthio-2-chloro-N-(4-methylphenyl)-5-{N-[5-(3,4,5-trimethoxyphenyl)-1,2,4-triazin-3-yl]sulfamoyl}-benzamide]	–	–
82 ± 1 µM	84 ± 5 µM	96 ± 5 µM	COc1cccc(-c2cnnc(NS(=O)(=O)c3cc(C(=O)Nc4ccc(C)cc4)c(Cl)cc3SCc3ccccc3)n2)c1 [Compound 54, 4-Benzylthio-2-chloro-5-{N-[5-(3-methoxyphenyl)-1,2,4-triazin-3-yl]sulfamoyl}-N-(4-methylphenyl)benzamide]	–	–
80 ± 1 µM	73 ± 1 µM	90 ± 1 µM	COc1ccc(NC(=O)c2cc(S(=O)(=O)Nc3nncc(-c4ccc(OC)cc4)n3)c(SCc3ccccc3)cc2Cl)cc1 [Compound 57, 4-Benzylthio-2-chloro-N-(4-methoxyphenyl)-5-{N-[5-(4-methoxyphenyl)-1,2,4-triazin-3-yl]sulfamoyl}benzamide]	–	–
85 ± 1 µM	97 ± 2 µM	99 ± 1 µM	COc1ccc(-c2cnnc(NS(=O)(=O)c3cc(C)c(Cl)cc3SCc3c(C)noc3C)n2)cc1 [Compound 41, 4-Chloro-2-[(3,5-dimethylizoxazol-4-yl)methylthio]-N-[5-(4-methoxyphenyl)-1,2,4-triazin-3-yl]-5-methyl-benzenesulfonamide]	–	–
87 ± 4 µM	88 ± 3 µM	87 ± 4 µM	COc1cc(-c2cnnc(NS(=O)(=O)c3cc(C)c(Cl)cc3SCc3ccccc3)n2)cc(OC)c1OC [Compound 32, 2-Benzylthio-4-chloro-5-methyl-N-[5-(3,4,5-trimethoxyphenyl)-1,2,4-triazin-3-yl]benzenesulfonamide]	–	–
80 ± 2 µM	80 ± 3 µM	87 ± 3 µM	COc1cccc(-c2cnnc(NS(=O)(=O)c3cc(C(=O)Nc4ccc(Cl)cc4)c(Cl)cc3SCc3ccccc3)n2)c1 [Compound 48, 4-Benzylthio-2-chloro-N-(4-chlorophenyl)-5-{N-[5-(3-methoxyphenyl)-1,2,4-triazin-3-yl]sulfamoyl}-benzamide]	–	–
84 ± 1 µM	75 ± 1 µM	80 ± 2 µM	Cc1cc(S(=O)(=O)Nc2nncc(-c3cccc(F)c3)n2)c(SCc2ccccc2)cc1Cl [Compound 27, 2-Benzylthio-4-chloro-N-[5-(3-fluorophenyl)-1,2,4-triazin-3-yl]-5-methylbenzenesulfonamide]	–	–
82 ± 1 µM	97 ± 2 µM	90 ± 1 µM	O=C(Nc1ccc(Cl)cc1)c1cc(S(=O)(=O)Nc2nncc(-c3cccc(F)c3)n2)c(SCc2ccccc2)cc1Cl [Compound 45, 4-Benzylthio-2-chloro-N-(4-chlorophenyl)-5-{N-[5-(3-fluorophenyl)-1,2,4-triazin-3-yl]sulfamoyl}benzamide]	–	–
